This assay has as its target T1, rabbit albumin (Oryctolagus cuniculus, UniProt P49065).
T1 construct: purchased Sigma, St. Louis Mo
The assay is described as follows: SA08b binding (peptide competition) assay, rabbit albumin. The following applies: for improvement in IC50 relative to core sequence (SA34 and SA19): rabbit albumin. The source says:
Plates were blocked as described above.
Peptides corresponding to identified phage sequences were synthesized and their affinity for rat, rabbit or mouse albumin measured using the SA08b binding assay.

This is an account of results in US20040001827A1, “Serum albumin binding peptides for tumor targeting” (priority 2002, published 2004).

By IC50 is commonly meant the concentration that inhibits the measured activity by half.

Read-outs that look alike come from different tables or passages of the source. Where a SMILES comes first, the peptide text is derived from it. Bridges are numbered along the chain shown (N, C = ends).

T1 sequence (P49065 25-608): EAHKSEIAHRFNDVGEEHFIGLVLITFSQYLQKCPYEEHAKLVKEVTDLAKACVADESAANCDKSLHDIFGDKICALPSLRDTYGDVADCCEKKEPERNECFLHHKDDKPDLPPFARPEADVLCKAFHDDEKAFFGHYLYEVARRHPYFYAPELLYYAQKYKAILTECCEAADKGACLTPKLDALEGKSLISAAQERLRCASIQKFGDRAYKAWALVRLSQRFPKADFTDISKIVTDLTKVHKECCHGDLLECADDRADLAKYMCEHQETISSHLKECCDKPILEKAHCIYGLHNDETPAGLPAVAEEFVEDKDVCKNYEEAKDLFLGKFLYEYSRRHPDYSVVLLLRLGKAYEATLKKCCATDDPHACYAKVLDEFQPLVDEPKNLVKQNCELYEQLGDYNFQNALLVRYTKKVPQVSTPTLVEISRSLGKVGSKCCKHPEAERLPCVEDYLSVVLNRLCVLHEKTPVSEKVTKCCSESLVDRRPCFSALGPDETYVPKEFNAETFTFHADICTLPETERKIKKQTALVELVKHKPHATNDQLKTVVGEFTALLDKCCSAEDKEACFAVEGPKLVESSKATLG

`CC[C@H](C)[C@H](NC(=O)[C@H](CC(=O)O)NC(C)=O)C(=O)N[C@H]1CSSC[C@@H](C(=O)N[C@@H](CC(C)C)C(=O)N[C@@H](Cc2c[nH]c3ccccc23)C(=O)N[C@@H](CCC(=O)O)C(=O)N[C@@H](CC(=O)O)C(N)=O)NC(=O)CNC(=O)[C@H](Cc2c[nH]c3ccccc23)NC(=O)[C@H](CCCNC(=N)N)NC(=O)[C@@H]2CCCN2C(=O)[C@H](CC(C)C)NC1=O` [SA26] (Ac-DICLPRWGCLWED-NH2; disulfide 3-9): the “improvement in IC50 relative to core sequence (SA34 and SA19)” value is given as “about 8.6 fold”.
The same measure, in the same setting: to `CC[C@H](C)[C@H](NC(=O)[C@H](CC(C)C)NC(=O)[C@H](CCCNC(=N)N)NC(C)=O)C(=O)N[C@@H](CCC(=O)O)C(=O)N[C@@H](CC(=O)O)C(=O)N[C@H](C(=O)N[C@H]1CSSC[C@@H](C(=O)N[C@@H](CC(C)C)C(=O)N[C@@H](Cc2c[nH]c3ccccc23)C(=O)N[C@@H](CCC(=O)O)C(=O)N[C@@H](CC(=O)O)C(N)=O)NC(=O)CNC(=O)[C@H](Cc2c[nH]c3ccccc23)NC(=O)[C@H](CCCNC(=N)N)NC(=O)[C@@H]2CCCN2C(=O)[C@H](CC(C)C)NC1=O)[C@@H](C)CC` [SA22] (Ac-RLIEDICLPRWGCLWED-NH2; disulfide 7-13) belongs 60 fold.
`CC(=O)N[C@H]1CSSC[C@@H](C(=O)N[C@@H](CC(C)C)C(=O)N[C@@H](Cc2c[nH]c3ccccc23)C(=O)N[C@@H](CCC(=O)O)C(=O)N[C@@H](CC(=O)O)C(N)=O)NC(=O)CNC(=O)[C@H](Cc2c[nH]c3ccccc23)NC(=O)[C@H](CCCNC(=N)N)NC(=O)[C@@H]2CCCN2C(=O)[C@H](CC(C)C)NC1=O` [SA28] (Ac-CLPRWGCLWED-NH2; disulfide 1-7) returned an IC50 of over 400 µM.
Take `CC[C@H](C)[C@H](NC(=O)[C@H](CC(C)C)NC(=O)[C@H](CCCNC(=N)N)NC(C)=O)C(=O)N[C@@H](CCC(=O)O)C(=O)N[C@@H](CC(=O)O)C(=O)N[C@H](C(=O)N[C@H]1CSSC[C@@H](C(=O)N[C@@H](CC(C)C)C(N)=O)NC(=O)CNC(=O)[C@H](Cc2c[nH]c3ccccc23)NC(=O)[C@H](CCCNC(=N)N)NC(=O)[C@@H]2CCCN2C(=O)[C@H](CC(C)C)NC1=O)[C@@H](C)CC` [SA33] (Ac-RLIEDICLPRWGCL-NH2; disulfide 7-13): the “improvement in IC50 relative to core sequence (SA34 and SA19)” value is on record as “approximately 6 fold”.
For the molecule `CC[C@H](C)[C@H](NC(=O)[C@H](CC(=O)O)NC(C)=O)C(=O)N[C@H]1CSSC[C@@H](C(=O)N[C@@H](CC(C)C)C(N)=O)NC(=O)CNC(=O)[C@H](Cc2c[nH]c3ccccc23)NC(=O)[C@H](CCCNC(=N)N)NC(=O)[C@@H]2CCCN2C(=O)[C@H](CC(C)C)NC1=O` [SA34] (Ac-DICLPRWGCL-NH2; disulfide 3-9), the IC50 was about 25 µM.
As for `CC[C@H](C)[C@H](NC(C)=O)C(=O)N[C@H]1CSSC[C@@H](C(N)=O)NC(=O)CNC(=O)[C@H](Cc2c[nH]c3ccccc23)NC(=O)[C@H](CCCNC(=N)N)NC(=O)[C@@H]2CCCN2C(=O)[C@H](CC(C)C)NC1=O` [SA36] (Ac-ICLPRWGC-NH2; disulfide 2-8), the IC50 (Table 9, rabbit albumin, peptide truncation series, read-out: IC50) was over 250 µM.
